Laboratory results from PMC4459106 (Scientific Reports, 2015).
Values belong to the substance of their own block, whether it stands above or below them.

What was measured:
ERK2 = details: cited from earlier work
Source text: While the biological relevance of this finding is debatable, care should be taken while analyzing in vitro data from studies that employ F-site and D-site containing ligands simultaneously.

[1] = biological target: T1, ppERK2 (D-recruitment site, DRS) (Rattus norvegicus, UniProt P63086); assay: NMR 15N,1H TROSY titration of ppERK2 with peptide ligand (CSPs; DRS affinity by two-site fit); type: binding, rat (rat ERK2 numbering used throughout); details: 130 μM ppERK2, 50 mM HEPES pH 6.8, KIM15-31 up to 992.0 μM
T1 construct: made in house
T1 sequence (P63086 whole entry): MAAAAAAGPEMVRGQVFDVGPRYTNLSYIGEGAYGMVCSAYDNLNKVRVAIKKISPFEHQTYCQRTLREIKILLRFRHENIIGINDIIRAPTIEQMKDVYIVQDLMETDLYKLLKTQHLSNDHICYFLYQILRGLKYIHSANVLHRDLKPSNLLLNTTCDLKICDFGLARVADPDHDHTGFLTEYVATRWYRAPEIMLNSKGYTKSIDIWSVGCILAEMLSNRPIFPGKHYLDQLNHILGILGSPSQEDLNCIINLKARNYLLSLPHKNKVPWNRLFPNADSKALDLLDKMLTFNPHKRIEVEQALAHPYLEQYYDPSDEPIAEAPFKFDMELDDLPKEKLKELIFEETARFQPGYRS
Procedure: Spectral perturbations on ppERK2 were assessed from ^15N, ^1H TROSY experiments at 600 MHz and 25.0 °C using 1024 and 128 complex points and sweep-widths of 15 and 33 ppm in the ^1H and ^15N dimensions, respectively. […] A 130 μM sample of ppERK2 in a buffer containing 50 mM HEPES pH 6.8, 150 mM NaCl, 200 μM EDTA and 2 mM DTT was titrated with the following amounts of KIM15-31: 49.2, 99,8, 149.0, 296.2, 450.6, 992.0 μM.

ppERK2 = biological target: T2, ppERK2 (Rattus norvegicus, UniProt P63086); assay: Fluorescence-based kinase assay, phosphorylation of ERK-sensor-D1 by ppERK2; type: biochemical, rat (rat ERK2 numbering used throughout); details: for Km: 2 nM ppERK2, 25 mM HEPES pH 7.5, 10 mM MgCl2, 28 °C, fluorescence 360/492 nm; for Vmax: 2 nM ppERK2, 25 mM HEPES pH 7.5, 28 °C
T2 construct: made in house
T2 sequence (P63086 whole entry): as above
Procedure: The ERK-sensor-D1 peptide[57] […] The reaction was initiated after 1 hour of pre-incubation at room temperature by adding 10 μL of 5 mM Mg^2+/ATP to 90 μL of assay mixture and the fluorescence intensity was recorded at each time point for a total of 6 minutes on a Fluorolog fluorimeter (Horiba Jobin Yvon) in quartz cuvettes (Starna Cells) with a 10 mm path length and a reaction volume of 100 μL. The sample was excited at 360 nm and fluorescence was monitored at 492 nm using excitation and emission slit widths of 3 nm. The change in fluorescence was related to the progression of the reaction using a previously determined conversion factor[58].

Substance: Ets-1: transcription factor possessing neither a canonical D-site nor F-site
binding to ERK2 (ERK2): efficiently bind ERK2

Substance: KIM15-31: DRS specific ligand (TLSLGAAMTQPPPEKTP; UniProt P35236 15-31, looked up, fragment)
CSPs on titration of ppERK2 with KIM15-31 [1]: the only significant CSPs are seen at the DRS and no significant long-range perturbations including at the FRS, are noted

Substance: PEA-15: anti-apoptotic small adaptor protein without canonical D-site or F-site sequences
binding to ERK2 (ERK2): efficiently bind ERK2

Km (ppERK2; absence of Elk387-399): 10.1 ± 0.8 µM
Vmax (ppERK2; absence of Elk387-399): 21.4 ± 0.5 nM phosphate/second
Km (ppERK2; presence of 100 μM Elk387-399): 22.7 ± 2.8 µM
Vmax (ppERK2; presence of 100 μM Elk387-399): 23.4 ± 1.1 nM phosphate/second
Substance: QRKTLQRRNLKGLNLNL-X3-TGPLSPC-Sox-PF [ERK-sensor-D1]

Substance: c-Fos: F-site containing c-Fos
increase in apparent KD of interaction with ppERK2 on DRS mutation (ERK2; F-site containing c-Fos, DRS-mutant vs native ERK2): 2-3 -fold
